Data as given in patent US20200368322A1, “METHODS OF IDENTIFYING AND USING AGENTS FOR TREATING DISEASES ASSOCIATED WITH INTESTINAL BARRIER DYSFUNCTION” (Yeda Research and Development Co. Ltd., priority 2018, published 2020).
“Also recorded” adds a separate entry of the source.

Assays:
[1] = Serum glucose measurement; assay type: in vivo, mouse
Experimental: (§1) To induce hyperglycemia, streptozotocin (STZ, Sigma-Aldrich) was diluted freshly in PBS and injected i.p. at 100 mg/kg at two consecutive days. Control mice were injected with PBS. Serum glucose measurements were performed using glucose strips (Perrigo). Hyperglycemic mice were used for further experimentation 2-3 weeks after STZ injection). For continuous insulin administration, ALZET osmotic pumps were used. Pumps were implanted subcutaneously in the back of the mice for 4 weeks. Insulin was delivered at 0.25 U/day. 2-deoxyglucose (2-DG) was injected i.p. twice daily at 5 mg per injection as previously described (47). Injections were performed for 10 consecutive days. Leptin antagonist was administered daily by intraperitoneal injection of 25 mg/kg as previously described (18).

[2] = system: intestinal epithelial adherence junctions; assay: Immunofluorescence staining of colon junctions (E-cadherin, ZO-1); assay type: in vivo, mouse
Experimental: (§2) Colon samples were extensively washed and fixed and 4% paraformaldehyde. Samples were washed, paraffin-embedded and sectioned. Paraffin sections were de-paraffinized and antigen-retrieved in 10 mM sodium citrate, pH 6. Samples were incubated in PBS containing 20% (v/v) normal horse serum and 0.2% (v/v) Triton X-100 for 1 h; and then incubated over-night with rabbit anti-ZO-1 (Invitrogen 40-2200) primary antibody or rabbit anti E-cadherin (Cell Signaling 24E10). Sections were washed and incubated for 1 hour with alexa 488-conjugated donkey anti Rabbit antibody. Alternatively, sections were stained with Ki67 to indicate proliferating cells.

Citrobacter rodentium [3] = assay: Citrobacter rodentium infection (bioluminescence, tissue CFU), Example 1; assay type: in vivo, mouse
Experimental: as §1
Mice were infected by oral gavage with 200 μl of an overnight culture of LB containing approximately 1×10^9 colony-forming units (CFU) of a kanamycin-resistant, luciferase-expressing derivative of C. rodentium DBS100 (ICC180) as previously described (16). For in vivo bioluminescent imaging, mice were anesthetized with Ketamine/Xylazine. Bioluminescence was quantified using an IVIS2000 instrument and Living Image software (Perkin Elmer). For ex vivo luminescence analysis, colons were resected, extensively washed from all fecal matter and immediately imaged. For CFU counts, tissues were collected, weighed and homogenized in 1 ml of sterile PBS. Tissue homogenates were serially diluted in PBS and plated on to LB kanamycin plates, incubated overnight at 37° C., and bacterial colonies were enumerated the following day, normalizing them to the tissue weight.

[4] = Intestinal inflammatory state (H&E staining, colonic cytokine gene expression); assay type: in vivo, mouse; details: STZ-treated mice vs controls
Salmonella Typhimurium = Salmonella Typhimurium infection; assay type: in vivo, mouse; details: STZ-treated mice, oral infection
Experimental: For oral infections, mice were pretreated with 50 mg/ml streptomycin one day prior to oral gavage of 10^8 CFU of SPI-II-deficient Salmonella Typhimurium (49). For systemic infections, mice were injected 10^4 CFU of Salmonella Typhimurium by intraperitoneal injection as previously described (50). One week after infection, colonization was assessed by bacterial plating on LB streptomycin plates, incubated overnight at 37° C., and bacterial colonies were enumerated the following day, normalizing them to the tissue weight.

[5] = system: intestinal epithelial cells; assay: Epithelial turnover (Ki67 staining, cell viability by flow cytometry); assay type: in vivo, mouse; details: STZ-treated mice vs controls
Experimental: as §2
For viability measurements, isolated intestinal epithelial cells were stained with EpCAM, CD45 and propidium iodide. Cells were analyzed on a BD-LSRFortessa cytometer. All antibodies were obtained from Biolegend.

[6] = system: colonic epithelial barrier; assay: Trans-epithelial flux (Ussing chamber, FITC-dextran); assay type: in vivo, mouse; details: STZ-treated mice, steady-state conditions
Experimental: On the day of the assay, 4 kDa fluorescein isothiocyanate (FITC)-dextran was dissolved in phosphate buffered saline (PBS) to a concentration of 80 mg/ml. Mice were fasted for 4 hours prior to gavage with 150 μl dextran. Mice were anesthetized 3 hours following gavage and blood was collected, centrifuged at 1,000×g for 12 min at 4° C. Serum was collected and fluorescence was quantified at an excitation wavelength of 485 nm and emission wavelength of 535 nm.
Epithelial resistance was measured using an Ussing chamber system (Warner Instruments P2300) according to the manufacturer's instructions. In brief, EasyMount chambers were calibrated, colonic tissue was excised from mice and immediately mounted, and voltage clamp recordings were performed. Tissues were maintained at 37° C. in physiological salt solution throughout the duration of the recording.

[7] = system: focal adhesions of Caco2 cells; assay: Caco2 cell-matrix focal adhesions (paxillin staining); assay type: cell-based, human; details: 10 mM acetyl-proline, 1 mM putrescine, 10 mM histamine, 5 mM spermine
Experimental: (§3) CaCo-2 cells were purchased from ATCC. Cells were routinely grown in regular tissue culture medium (DMEM, 10% FCS, penicillin/streptomycin, GlutaMAX). For experiments with differing glucose concentrations, cells were routinely cultured in low-glucose DMEM (1 g/l glucose). Cells were seeded onto 96-well glass-bottom plates coated with either fibronectin or collagen 70 000 cells/well and allowed to grow for 24 hours to form confluent monolayer before indicated treatments.
(§4) For high resolution images of manually selected representative fields, a DeltaVision wide field fluorescent microscope (GE Healthcare) equipped with 40×UPlanFLN or 60×/1.42 PlanApo N oil objective (Olympus) was used. For multi-well plate scanning, the following automated imaging stations were used: DeltaVision microscope with plate scanning regiment, Hermes imaging station (IDEA bio-Medical) or ImagExpress microXL imaging station (Molecular Devices) equipped by 40× air objectives. In all cases in order to cover the curvature of apical surface of epithelial monolayer 5 μm thick z-stack was acquired around the tight junction plane (identified by best focus algorithm) and resulting image was generated as a maximum projection of all optical sections.

Caco2 cells [8] = details: 10 mM histamine
Experimental: For immunofluorescent staining, cells were permeabilized with 0.5% Triton ×100 in 3% paraformaldehyde for 3 minutes and fixed with 3% paraformaldehyde for an additional 30 minutes. Tight junction labeling was performed with either rabbit anti-cingulin antibodies or with anti-zo1 mouse monoclonal antibodies (BD Transduction Laboratories). Focal adhesions were labeled with either anti-paxillin mouse monoclonal antibodies (BD Transduction Laboratories) or with anti-zyxin rabbit polyclonal antibodies. Adherens junctions were labeled with anti-β-catenin rabbit polyclonal antibodies (Sigma). The following secondary, fluorescently labeled antibodies (Invitrogen) were used: Alexa Fluor 488 goat anti-mouse or anti-rabbit antibodies for tight junction visualization and Alexa Fluor 647 goat anti-mouse or anti-rabbit antibodies for focal adhesions or adherens junctions visualization. Actin was labeled with TRITC-phalloidin (Sigma) and nuclei with DAPI.

Caco2 cells [9] = assay: Traction force microscopy; assay type: cell-based, human; details: Caco2 islands on polyacrylamide hydrogels, 24 hours treatment
Experimental: SoftTrac 6 well plates with pre-made collagen coated 12 kPa hydrogels containing embedded 0.2 μm fluorescent beads were purchased from Matrigen. 200,000 cells per well were plated and allowed to grow for 24 hours to form epithelial islands, treated with the indicated metabolite for another 24 hours and live-imaged using DeltaVision microscope equipped with environmental chamber. After acquisition of cell and fluorescent bead images in steady state conditions, cells were detached with trypsin and imaging of beads was repeated in a relaxed state. Displacement map generation and force calculations were performed using MatLab script described in Butler et al. Am J Physiol Cell Physiol. 2002.

[10] = system: tight junctions of Caco2 cells; assay: Caco2 tight junction morphology (cingulin or ZO-1 staining, tortuosity); assay type: cell-based, human
Experimental: as §3, §4
Cell images were segmented using Morphological Segmentation ImageJ plug-in and junction tortuosity was calculated as a ratio between junction length and Euclidian distance between its ends.

Citrobacter rodentium [11] = assay type: in vivo, mouse; details: putrescine plus 30 mg/ml taurine in drinking water
Experimental: For putrescine treatment, mice received putrescine by oral gavage with a dose of 200 mg/kg twice daily for 10 days prior to and during DSS treatment or Citrobacter rodentium infection.
A kanamycin-resistant and luciferase-expressing derivative of Citrobacter rodentium DBS100 (ICC180) was used for infection as previously described (Thaiss et al., Science. 2018 Mar. 23; 359(6382):1376-1383).
Mice were infected with 200 μl solution containing approximately 1×10^9 colony-forming units (CFU) of overnight cultured bacteria by oral gavage. Infection was monitored by enumerating stool CFU and measuring abdominal bioluminescent. For in vivo bioluminescent imaging, mice were anesthetized and bioluminescence was measured using an IVIS2000 instrument and Living Image software (Perkin Elmer). For ex vivo luminescence quantification, the whole colons were dissected, extensively washed from all luminal contents, longitudinally cut open and immediately imaged. For CFU counts, stool or tissues were collected, weighed and homogenized in sterile phosphate buffered saline (PBS−/−). Homogenates were then serially diluted in PBS−/− and plated on LB kanamycin plates, incubated overnight at 37° C. Bacterial CFUs were counted the next day, normalizing them to the stool or tissue weight.

intestinal microbiota = assay: Taxonomic microbiota analysis (16S rDNA sequencing); assay type: in vivo, mouse; details: hyperglycemic (STZ-treated) mice, insulin treatment
Experimental: Frozen fecal samples were processed for DNA isolation using the MoBio PowerSoil kit according to the manufacturer's instructions. For the 16S rRNA gene PCR amplification, 1 ng of the purified fecal DNA was used for PCR amplification. Amplicons spanning the variable region V3/4 of the 16S rRNA gene were generated by using primers: Fwd 5′-[…]-3′ (SEQ ID NO: 1), Rev 5′-[…]-3′ (SEQ ID NO: 2). The reactions were subsequently pooled and cleaned (PCR clean kit, Promega), and the PCR products were then sequenced on an Illumina MiSeq with 500 bp paired-end reads. The reads were then processed using the QIIME analysis pipeline as described (55, 56). In brief, fasta quality files and a mapping file indicating the barcode sequence corresponding to each sample were used as inputs, reads were split by samples according to the barcode, taxonomical classification was performed using the RDP-classifier, and an OTU table was created. Closed-reference OTU mapping was employed using the Greengenes database. Rarefaction was used to exclude samples with insufficient count of reads per sample. Sequences sharing 97% nucleotide sequence identity in the 16S region were binned into operational taxonomic units (97% ID OTUs). For beta-diversity, unweighted UniFrac measurements were plotted according to the two principal coordinates based on 10,000 reads per sample. […]

[12] = system: microbial pattern recognition receptor (PRR) ligands; assay: Quantification of microbial products at systemic sites (PRR reporter cell lines); assay type: in vivo, mouse; details: STZ-treated mice given the agent (insulin 0.25 U per day; 2-DG i.p. twice daily 5 mg)
Experimental: as §1, with “(18). The following PRR reporter cell lines were obtained from Invivogen (HEK-Blue TLR and NLR reporter cell lines): TLR2, TLR3, TLR4, TLR5, TLR7, TLR9, NOD1, NOD2. Extracts from spleen, liver, and serum were homogenized and added to reporter cell lines incubated with HEK-Blue detection medium (Invivogen) according to the manufacturer's instructions.” for “(18).”

[13] = mice treated with the agent alone

Molecule: CN(N=O)C(=O)N[C@H]1C(O)O[C@H](CO)[C@@H](O)[C@@H]1O (mixture of isomers) [STZ, streptozotocin]
- blood glucose levels [1, 13]: hyperglycemia was induced
- intestinal epithelial adherence junctions ([2]; STZ-treated mice, steady-state conditions): dysfunction of intestinal epithelial adherence junctions
- C. rodentium infection and systemic spread (Citrobacter rodentium [3]; [13]): severe C. rodentium infection and systemic translocation
- inflammatory state in the intestine [4]: did not provoke an overt inflammatory state
- intestinal luminal growth of Salmonella (Salmonella Typhimurium): comparable to vehicle-treated controls
- systemic colonization by Salmonella (Salmonella Typhimurium): enhanced systemic colonization
- epithelial proliferation or cell death [5]: not affected
- trans-epithelial flux [6]: enhanced trans-epithelial flux

Molecule: NCCc1c[nH]cn1 [histamine]
- focal adhesions size [7]: increase of focal adhesions size
- apical actin-enriched structures (Caco2 cells [8]): assembly of actin fibers in the same plane where tight junctions are located
- forces applied to the substrate (cell contractility) (Caco2 cells [9]): increases cell contractility
- recovery of the TJs after washout ([10]; CaCo2 cells pretreated 24 hrs with disruptor, then regular culture medium for 24 hours): nearly complete recovery of the TJs
- TJ structure after disruptor treatment ([10]; CaCo2 cells, 24 hrs, LPS 300 ng/ml, Histamine 10 mM, putrescine 1 mM): pronounced TJ disruption
- effect on tight junctions in metabolite screen ([10]; Caco2 cells): Disruption
- tight junction disruption phenotype (type 1 zipper-like, type 2 flower-like) ([10]; Caco2 cells, known IBD mediators): type 2
- tight junction morphology ([10]; Caco2 cells, 10 mM acetyl-proline, 1 mM putrescine, 10 mM histamine, 5 mM spermine): distortion of tight junctions geometry; also recorded: distortion of tight junction morphology
- tight junction phenotype in combination with LPS ([10]; Caco2 cells, type 2 disruptor plus LPS): double effect

Molecule: NCCS(=O)(=O)O [taurine]
- disruptive effect of putrescine in mice with C. rodentium infection (Citrobacter rodentium [11]): restoration of the disruptive effect of putrescine
- recovery of TJ structure on replacement of disruptors with stabilizer ([10]; CaCo2 cells pretreated with LPS, histamine or putrescine, even in the presence of the disruptors): full recovery of TJ structure
- effect on tight junctions in metabolite screen ([10]; Caco2 cells): Stabilization
- tight junction distortion caused by LPS ([10]; Caco2 cells, 10 mM taurine, 1 mM tryptamine, 10 mM L-homo-serine, in combination with LPS): abolish tight junction distortion caused by LPS treatment alone

Molecule: insulin
- serum glucose levels ([1]; STZ-treated mice, 0.25 U per day insulin via pumps for 4 weeks): restored normoglycemic levels
- loss of adherence junction integrity ([2]; STZ-treated mice given the agent): prevented
- enhanced C. rodentium growth and pathogenic translocation / host defense against C. rodentium (Citrobacter rodentium [3]; STZ-treated mice given the agent (insulin 0.25 U per day; 2-DG i.p. twice daily 5 mg)): prevented
- taxonomic change in the configuration of the intestinal microbiota (intestinal microbiota): corrected
- systemic dissemination of microbial products [12]: prevented
